Target: T1, NanoLuc-hACKR3 (Homo sapiens, UniProt P25106)
T1 construct: expressed in transfected cells; host or cells: HEK293T (transient, PEI; membrane preparation)
Test: NanoBRET binding study (displacement of fluorescently labelled CXCL12)
Conditions: displacement of 0.3 nM CXCL12-AF647; membranes of HEK293T cells expressing NanoLuc-ACKR3; 1 hour incubation; read-out: Affinity
Method: Membranes of HEK293T cells that transiently express the NanoLuc-hACKR3 were produced. 2 million HEK293T cells were seeded per […] dish and were transfected the next day using a DNA/PEI-mix containing 0.25 μg plasmid DNA encoding for the ACKR3, 4.75 μg pcDEF3 plasmid DNA and 30 μg linear PEI. Two days after transfection, cells were collected in PBS and pelleted by centrifugation. Cell pellets were resuspended in ice-cold membrane buffer (15 mM Tris, 0.3 mM EDTA, 2 mM MgCl2, pH 7.4 at 4° C.) and were dounce-homogenized on ice by plunging the pestle […] with 1500 rpm. Cell homogenates were subsequently subjected to two freeze-thaw cycles using liquid nitrogen. Next, the cell homogenates were centrifuged at 40,000 g and pellets were resuspended in Tris-sucrose buffer (20 mM Tris, 250 mM Sucrose, pH 7.4 at 4° C.). Finally, the membrane samples were homogenized using a 23-gauge needle, snap-frozen with liquid nitrogen and stored until further experimentation at −80° C.
Binding reactions were measured in triplicate on white low-volume 384-well plates and started by combining 0.3 nM fluorescently labelled CXCL12 (CXCL12 labelled with a AF647® dye in a molar ratio of dye:peptide of 1:1, purchased from ALMAC, h-SDF-1α (AF647®), cat. No. CAF-11, Sequence:
[…](Ale xa647®)ALN), increasing concentrations of test compound (10^−5 M-10^−11 M) with 35 ng membranes (protein content) per well of HEK293T cells expressing the NanoLuc-ACKR3. All dilutions were prepared in HBSS supplemented with 0.2% BSA. After assembling the binding reaction, the plate was flash-centrifuged at 500 g. Binding reactions were then incubated for 1 hour after which NanoGlo substrate was added (310 times diluted from stock concentration) to a final volume of 13.5 μL. The reaction plate was again pulse-centrifuged to 500 g and the total light intensity was measured for 460 nm wavelength with 80 nm bandwidth and separately for wavelengths ≥610 nm using the PHERAstar-FSX (BMG Labtech, Ortenberg, Germany) with a dual emission filter. The ratio of light intensities (>610 nm over 460 nm) is a measure for the relative binding of CXCL12-A647 to the NanoLuc-ACKR3. The pharmacological data are presented in Appendix 1.

T1 sequence (P25106 whole entry): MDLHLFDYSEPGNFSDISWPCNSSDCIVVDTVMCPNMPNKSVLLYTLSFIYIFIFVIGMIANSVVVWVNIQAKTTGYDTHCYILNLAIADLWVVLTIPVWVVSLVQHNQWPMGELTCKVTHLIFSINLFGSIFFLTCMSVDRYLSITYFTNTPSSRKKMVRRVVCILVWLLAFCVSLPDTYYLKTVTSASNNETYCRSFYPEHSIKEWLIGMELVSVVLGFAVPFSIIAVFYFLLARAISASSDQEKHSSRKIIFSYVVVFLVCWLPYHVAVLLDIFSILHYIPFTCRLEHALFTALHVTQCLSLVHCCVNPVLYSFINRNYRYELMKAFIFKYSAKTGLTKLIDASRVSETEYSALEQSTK

Compared with O=C(NCC1CCN(CC2CCCC2)CC1)c1cc(-c2ccc(F)cc2F)on1 [Molecule 16], O=C(NCC1CCN(CC2CCCCC2)CC1)c1cc(-c2ccc(F)cc2F)on1 [Molecule 22] is higher in Ki: 100 to 1000 nM for the first, 1000 to 10000 nM for the second. The first binds more tightly here.

O=C(NCC1CCN(C/C=C/c2ccccc2)CC1)c1nc(-c2ccc(F)cc2F)cs1 [Molecule 80] and O=C(NCC1CCN(C/C=C/c2ccccc2)CC1)c1csc(-c2ccc(F)cc2F)n1 [Molecule 82] fall in the same range of Ki: 1000 to 10000 nM for the first, 1000 to 10000 nM for the second.

O=C(NCC1CCN(C2CCC2)CC1)c1cc(-c2ccc(F)cc2F)on1 [Molecule 18] and O=C(NCC1CCN(C2CCCC2)CC1)c1cc(-c2ccc(F)cc2F)on1 [Molecule 19] fall in the same range of Ki: 100 to 1000 nM for the first, 100 to 1000 nM for the second.

O=C(NCC1CCN(C(=O)C2CC2)CC1)c1cc(-c2ccc(F)cc2F)on1 [Molecule 7] and O=C(NCC1CCN(C(=O)C2CCC2)CC1)c1cc(-c2ccc(F)cc2F)on1 [Molecule 8] cannot be ordered by Ki: > 10000 nM for the first, > 10000 nM for the second.

O=C(NCC1CCN(CCCc2ccccc2)CC1)c1cc(-c2ccc(F)cc2F)on1 [Molecule 24] and O=C(NCC1CCN(CCCCc2ccccc2)CC1)c1cc(-c2ccc(F)cc2F)on1 [Molecule 45] cannot be ordered by Ki: ≤ 100 nM for the first, ≤ 100 nM for the second.

First: O=C(NCC1CCN(C2CCCCC2)CC1)c1cc(-c2ccccc2)on1 [Molecule 2]
Second: O=C(NCC1CCN(C2CCCCCC2)CC1)c1cc(-c2ccc(F)cc2F)on1 [Molecule 20]
The Ki of the first is higher: > 10000 nM for the first, 100 to 1000 nM for the second. The second binds more tightly here.

Compared with COC(=O)c1ccc(CN2CCC(CNC(=O)c3cc(-c4ccc(F)cc4F)on3)CC2)cc1 [Molecule 36], O=C(O)c1ccc(CN2CCC(CNC(=O)c3cc(-c4ccc(F)cc4F)on3)CC2)cc1 [Molecule 40] is higher in Ki: ≤ 100 nM for the first, 1000 to 10000 nM for the second. The first binds more tightly here.

O=C(NCC1CCN(C/C=C/c2ccccc2)CC1)c1nc(-c2ccc(F)cc2F)no1 [Molecule 99] and O=C(NCC1CCN(C/C=C/c2ccccc2)CC1)c1nnc(-c2ccc(F)cc2F)o1 [Molecule 96] cannot be ordered by Ki: 100 to 1000 nM for the first, ≤ 100 nM for the second.

First: O=C(NCC1CCN(C/C=C/c2ccccc2)CC1)c1cnn(-c2ccc(F)cc2F)n1 [Molecule 68]
Second: O=C(NCC1CCN(C/C=C/c2ccccc2)CC1)c1nnn(-c2ccc(F)cc2F)n1 [Molecule 72]
The Ki of the first is higher: 1000 to 10000 nM for the first, 100 to 1000 nM for the second. The second binds more tightly here.

O=C(NCC1CCN(C/C=C/c2ccccc2)CC1)c1cc(-c2ccc(F)cc2F)n[nH]1 [Molecule 58] and O=C(NCC1CCN(C/C=C/c2ccccc2)CC1)c1nc(-c2ccc(F)cc2F)c[nH]1 [Molecule 77] fall in the same range of Ki: 1000 to 10000 nM for the first, 1000 to 10000 nM for the second.

CN(C)c1ccc(CN2CCC(CNC(=O)c3cc(-c4ccc(F)cc4F)on3)CC2)cc1 [Molecule 37] and Cc1ccc(CN2CCC(CNC(=O)c3cc(-c4ccc(F)cc4F)on3)CC2)cc1 [Molecule 33] cannot be ordered by Ki: ≤ 100 nM for the first, ≤ 100 nM for the second.

O=C(NCC1CCN(Cc2ccc(OC(F)(F)F)cc2)CC1)c1cc(-c2ccc(F)cc2F)on1 [Molecule 38] and O=C(NCC1CCN(Cc2ccc(C(F)(F)F)cc2)CC1)c1cc(-c2ccc(F)cc2F)on1 [Molecule 51] cannot be ordered by Ki: > 10000 nM for the first, > 10000 nM for the second.

First: O=C(NCC1CCN(Cc2ccc([N+](=O)[O-])cc2)CC1)c1cc(-c2ccc(F)cc2F)on1 [Molecule 43]
Second: O=C(NCC1CCN(Cc2ccc(F)cc2)CC1)c1cc(-c2ccc(F)cc2F)on1 [Molecule 52]
The Ki of the first is higher: > 10000 nM for the first, 100 to 1000 nM for the second.

CN(C)C(=O)c1ccc(CN2CCC(CNC(=O)c3cc(-c4ccc(F)cc4F)on3)CC2)cc1 [Molecule 41] and CN(C)C(=O)c1cccc(CN2CCC(CNC(=O)c3cc(-c4ccc(F)cc4F)on3)CC2)c1 [Molecule 31] fall in the same range of Ki: 1000 to 10000 nM for the first, 1000 to 10000 nM for the second.

First: O=C(NCC1CCN(C(=O)c2cnc3ccccc3n2)CC1)c1cc(-c2ccc(F)cc2F)on1 [Molecule 12]
Second: O=C(NCC1CCN(c2ccccc2)CC1)c1cc(-c2ccc(F)cc2F)on1 [Molecule 32]
The Ki of the first is lower: 1000 to 10000 nM for the first, > 10000 nM for the second.

O=C(NCC1CCN(Cc2ccccn2)CC1)c1cc(-c2ccc(F)cc2F)on1 [Molecule 28] and O=C(NCC1CCN(Cc2ccccc2)CC1)c1cc(-c2ccc(F)cc2F)on1 [Molecule 17] fall in the same range of Ki: 100 to 1000 nM for the first, 100 to 1000 nM for the second.

O=C(NCC1CCN(C/C=C/c2ccccc2)CC1)c1ncc(-c2ccc(F)cc2F)s1 [Molecule 85] and O=C(NCC1CCN(C/C=C/c2ccccc2)CC1)c1cnc(-c2ccc(F)cc2F)s1 [Molecule 87] cannot be ordered by Ki: ≤ 100 nM for the first, ≤ 100 nM for the second.

O=C(NCC1CCN(Cc2ccc(Br)cc2)CC1)c1cc(-c2ccc(F)cc2F)on1 [Molecule 53] and O=C(NCC1CCN(Cc2ccc(O)cc2)CC1)c1cc(-c2ccc(F)cc2F)on1 [Molecule 50] cannot be ordered by Ki: 100 to 1000 nM for the first, ≤ 100 nM for the second.

O=C(NCC1CCN(C/C=C/c2ccccc2)CC1)c1nnc(-c2ccc(F)cc2F)s1 [Molecule 89] and O=C(NCC1CCN(C/C=C/c2ccccc2)CC1)c1cc(-c2ccc(F)cc2F)on1 [Molecule 42] cannot be ordered by Ki: ≤ 100 nM for the first, ≤ 100 nM for the second.

First: O=C(NCC1CCN(Cc2ccncc2)CC1)c1cc(-c2ccc(F)cc2F)on1 [Molecule 30]
Second: O=C(NCC1CCN(Cc2cccnc2)CC1)c1cc(-c2ccc(F)cc2F)on1 [Molecule 29]
The Ki of the first is higher: 1000 to 10000 nM for the first, 100 to 1000 nM for the second. The second binds more tightly here.

COc1ccccc1CN1CCC(CNC(=O)c2cc(-c3ccc(F)cc3F)on2)CC1 [Molecule 25] and COc1cccc(CN2CCC(CNC(=O)c3cc(-c4ccc(F)cc4F)on3)CC2)c1 [Molecule 26] cannot be ordered by Ki: ≤ 100 nM for the first, ≤ 100 nM for the second.

CC(=O)Nc1ccc(CN2CCC(CNC(=O)c3cc(-c4ccc(F)cc4F)on3)CC2)cc1 [Molecule 39] and O=C(NCC1CCN(Cc2ccc(Cl)cc2)CC1)c1cc(-c2ccc(F)cc2F)on1 [Molecule 34] cannot be ordered by Ki: ≤ 100 nM for the first, ≤ 100 nM for the second.

COc1cc(CN2CCC(CNC(=O)c3cc(-c4ccc(F)cc4F)on3)CC2)cc(OC)c1OC [Molecule 47] and COc1ccc(CN2CCC(CNC(=O)c3cc(-c4ccc(F)cc4F)on3)CC2)cc1OC [Molecule 46] cannot be ordered by Ki: 100 to 1000 nM for the first, ≤ 100 nM for the second.

Compared with COc1ccc(CN2CCC(CNC(=O)c3cc(-c4ccc(F)cc4F)on3)CC2)cc1 [Molecule 27], N#Cc1ccc(CN2CCC(CNC(=O)c3cc(-c4ccc(F)cc4F)on3)CC2)cc1 [Molecule 35] is higher in Ki: ≤ 100 nM for the first, > 10000 nM for the second.

Compared with CS(=O)(=O)c1ccc(CN2CCC(CNC(=O)c3cc(-c4ccc(F)cc4F)on3)CC2)cc1 [Molecule 48], NS(=O)(=O)c1ccc(CN2CCC(CNC(=O)c3cc(-c4ccc(F)cc4F)on3)CC2)cc1 [Molecule 49] is lower in Ki: 1000 to 10000 nM for the first, 100 to 1000 nM for the second.

O=C(NCC1CCN(C/C=C/c2ccccc2)CC1)c1ncc(-c2ccc(F)cc2F)o1 [Molecule 94] and O=C(NCC1CCN(C/C=C/c2ccccc2)CC1)c1cc(-c2ccc(F)cc2F)no1 [Molecule 92] cannot be ordered by Ki: 100 to 1000 nM for the first, ≤ 100 nM for the second.

O=C(NCC1CCN(C(=O)C2CCCCC2)CC1)c1cc(-c2ccc(F)cc2F)on1 [Molecule 9] and O=C(NCC1CCN(S(=O)(=O)C2CC2)CC1)c1cc(-c2ccc(F)cc2F)on1 [Molecule 14] cannot be ordered by Ki: > 10000 nM for the first, > 10000 nM for the second.

O=C(NCC1CCN(C/C=C/c2ccccc2)CC1)c1cnn(-c2ccc(F)cc2F)c1 [Molecule 64] and O=C(NCC1CCN(C/C=C/c2ccccc2)CC1)c1cn(-c2ccc(F)cc2F)nn1 [Molecule 61] cannot be ordered by Ki: 100 to 1000 nM for the first, ≤ 100 nM for the second.

Work on O=C(NCC1CCN(CCc2ccccc2)CC1)c1cc(-c2ccc(F)cc2F)on1 [Molecule 23] yielded a Ki of 100 to 1000 nM.

Source: patent publication US20250170117A1, “MODULATORS OF ACKR3 AND USES THEREOF” (InterAx Biotech AG, priority 2022, published 2025)
